According to patent EP1099690A1, “MONOCYCLIC $g(b)-LACTAM COMPOUNDS AND CHYMASE INHIBITORS CONTAINING THE SAME” (SHIONOGI & CO., LTD., priority 1998, dated 2000):

Columns and labels:
human chymase = molecular target: T1, human chymase (Homo sapiens, UniProt P23946); test: Chymase inhibitory activity (Suc-Ala-Ala-Pro-Phe-pNA substrate, absorption 405 nm); assay type: biochemical; conditions: purified human chymase, 30 minutes at 37 °C preincubation, substrate 0.5 mM
T1 sequence (P23946 22-247): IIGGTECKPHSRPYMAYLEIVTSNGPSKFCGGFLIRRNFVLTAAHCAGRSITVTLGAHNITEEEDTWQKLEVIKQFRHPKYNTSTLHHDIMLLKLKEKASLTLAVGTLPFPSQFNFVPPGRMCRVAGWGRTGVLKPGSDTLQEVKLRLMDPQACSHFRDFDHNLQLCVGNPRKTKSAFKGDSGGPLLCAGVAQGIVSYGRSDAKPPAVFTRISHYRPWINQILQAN
Method: Compound (I) was dissolved in dimethylsulfoxide (DMSO) at 10^-2 M. Concentration of DMSO for activity measurement was 1 %.
Compound (I) dissolved in DMSO and purified human chymase (Takai et al., Clinica Chimica Acta 265, 1997, 13-20) were added to a buffer (0.1M Tris-HCl, 1.8M NaCl pH8.0). After the mixture was treated for 30 minutes at 37 °C, Suc-Ala-Ala-Pro-Phe-pNA (BACHEM Feinchemikalien AG) was added at 0.5 mM as a substrate and the mixture was enzymatically reacted at 37 °C.
After the reaction, the absorption intensity (405 nm) of the solution was measured to calculate the inhibitory rate.

IL-1β = test: Cytokine production inhibitory activity, Concanavalin A stimulated mononuclear cells, ELISA: IL-1β; assay type: cell-based; conditions: IL-1β in culture supernatant, human mononuclear cells, Concanavalin A 5 µg/ml, forty-eight hours
Method: (§1) After human blood obtained in heparinized tube was layered on the Filcoll - Hypaque mixed solution (density=1.114, mono-poly separation solution, Dainippon Pharmaceutical Co., Ltd.), it was centrifuged to prepare mononuclear cells. The obtained mononuclear cells were suspended in a medium (Macrophage-SFM:GIBCO) to adjust 2 X 10^6 cells/ml and cultivated in 48-well plates. Ten minutes later addition of the compound of the present invention, Concanavalin A (5 µg/ml) was added to stimulate cells. After forty-eight hours, IL-1β, IL-2, IL-4, IL-5, IL-6, TNF-α and IFNγ in the culture supernatant were quantified by ELISA method. The following kits were used for the quantification of these cytokines. • IL-1β: Quantikine(Trademark) Human IL-1β ELISA KIT (R&D system) • IL-2: Quantikine(Trademark) Human IL-2 ELISA KIT (R&D system) • IL-4: Quantikine(Trademark) Human IL-4 ELISA KIT (R&D system) • IL-5: Quantikine(Trademark) Human IL-5 ELISA KIT (R&D system) • IL-6: Quantikine(Trademark) Human IL-6 ELISA KIT (R&D system) • TNF-α: Quantikine(Trademark) Human TNF-α ELISA KIT (R&D system) • IFNγ: Quantikine(Trademark) Human IFNγ ELISA KIT (R&D system)

IL-2 = test: Cytokine production inhibitory activity, Concanavalin A stimulated mononuclear cells, ELISA: IL-2; assay type: cell-based; conditions: IL-2 in culture supernatant, Concanavalin A 5 µg/ml, forty-eight hours
Method: as §1

IL-4 = test: Cytokine production inhibitory activity, Concanavalin A stimulated mononuclear cells, ELISA: IL-4; assay type: cell-based; conditions: IL-4 in culture supernatant, Concanavalin A 5 µg/ml, forty-eight hours
Method: as §1

IFNγ = test: Cytokine production inhibitory activity, Concanavalin A stimulated mononuclear cells, ELISA: IFNγ; assay type: cell-based; conditions: IFNγ in culture supernatant, Concanavalin A 5 µg/ml, forty-eight hours
Method: as §1

IL-5 = test: Cytokine production inhibitory activity, Concanavalin A stimulated mononuclear cells, ELISA: IL-5; assay type: cell-based; conditions: IL-5 in culture supernatant, human mononuclear cells, Concanavalin A 5 µg/ml, forty-eight hours
Method: as §1

TNF-α = test: Cytokine production inhibitory activity, Concanavalin A stimulated mononuclear cells, ELISA: TNF-α; assay type: cell-based; conditions: TNF-α in culture supernatant, human mononuclear cells, Concanavalin A 5 µg/ml, forty-eight hours
Method: as §1

IL-6 = test: Cytokine production inhibitory activity, Concanavalin A stimulated mononuclear cells, ELISA: IL-6; assay type: cell-based; conditions: IL-6 in culture supernatant, Concanavalin A 5 µg/ml, forty-eight hours
Method: as §1

Cathepsin G = molecular target: T2, Cathepsin G (Homo sapiens, UniProt P08311); test: Inhibitory activity on other serine proteases: Cathepsin G (sucAAPFpNA); assay type: biochemical; conditions: for IC50: Cathepsin G; for fold vs chymase: Cathepsin G IC50 compared with IC50 value of chymase
T2 construct: human purulent sputum cathepsin (1.7 µg/ml in 1 mM HCl, 20 mM CaCl2, CALBIOCHEM); purchased CALBIOCHEM; host or cells: human purulent sputum
T2 sequence (P08311 21-244): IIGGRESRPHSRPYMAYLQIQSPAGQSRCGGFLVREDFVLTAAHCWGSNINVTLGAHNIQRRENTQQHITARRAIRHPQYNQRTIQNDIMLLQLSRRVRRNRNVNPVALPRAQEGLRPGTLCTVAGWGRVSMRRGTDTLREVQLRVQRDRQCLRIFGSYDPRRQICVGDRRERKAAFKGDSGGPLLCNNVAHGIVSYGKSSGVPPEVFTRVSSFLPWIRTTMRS
Method: (§2) The mixture of 10 µl of human purulent sputum cathepsin (1.7 µg/ml in 1 mM HCl, 20 mM CaCl2, CALBIOCHEM), 80 µl of buffer (50mM Tris-HCl, pH 7.5, 5.2 mM CaCl2) and 1 µl of the compound of the present invention (in DMSO) was incubated for 20 minutes at room temperature and for 10 minutes at 37 °C. The resultant mixture was reacted with 10 µl of a substrate (5 mM sucAAPFpNA in DMSO, BACHEM Feinchemikalien AG) for about 60 minutes at 37 °C and the absorption intensity (405 nm) was measured.
(§3) The IC50 values of each serine protease are calculated and compared with IC50 value of chymase.

human plasma thrombin = molecular target: T3, human plasma thrombin (Homo sapiens, UniProt P00734); test: Inhibitory activity on other serine proteases: Thrombin (Chromozyme TH); assay type: biochemical; conditions: for IC50: thrombin; for fold vs chymase: thrombin IC50 compared with IC50 value of chymase
T3 construct: human plasma thrombin (1 U/ml in 10 mM Mes, pH 6.0, 0.1 M NaCl, SIGMA); purchased SIGMA; host or cells: human plasma
Method: The mixture of 10 µl of human plasma thrombin (1 U/ml in 10 mM Mes, pH 6.0, 0.1 M NaCl, SIGMA), 80 µl of buffer (0.1 M Tris-HCl, pH 8.0, 10 mM CaCl2, 0.1 M NaCl) and 1 µl of the compound of the present invention (in DMSO) was incubated for 20 minutes at room temperature and for 10 minutes at 37 °C. The resultant mixture was reacted with 10 µl of a substrate (5 mM Chromozyme TH (TosGPRpNA, Boehringer Mannheim) in H2O) for about 60 minutes at 37 °C and the absorption intensity (405 nm) was measured.
as §3

bovine pancreas trypsin = molecular target: T4, bovine pancreas trypsin (Bos taurus, UniProt P00760); test: Inhibitory activity on other serine proteases: Trypsin (sucAAPRpNA); assay type: biochemical; conditions: for IC50: trypsin; for fold vs chymase: trypsin IC50 compared with IC50 value of chymase
T4 construct: bovine pancreas trypsin (1.5 µg/ml in 1 mM HCl, 20 mM CaCl2, SIGMA); purchased SIGMA; host or cells: bovine pancreas
T4 sequence (P00760 24-246): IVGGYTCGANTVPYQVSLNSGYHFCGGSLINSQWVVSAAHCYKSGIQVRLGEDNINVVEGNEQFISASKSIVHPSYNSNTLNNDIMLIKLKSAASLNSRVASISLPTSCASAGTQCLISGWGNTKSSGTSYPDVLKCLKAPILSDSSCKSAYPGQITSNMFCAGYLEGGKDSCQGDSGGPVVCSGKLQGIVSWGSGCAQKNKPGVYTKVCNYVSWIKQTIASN
Method: as §2, with “bovine pancreas trypsin (1.5” for “human purulent sputum cathepsin (1.7”, “SIGMA),” for “CALBIOCHEM),”, “Tris-HCl, 2 mM CaCl2” for “Tris-HCl,”, “8.0)” for “7.5, 5.2 mM CaCl2)”, “sucAAPRpNA (BACHEM” for “sucAAPFpNA in DMSO, BACHEM”, “AG) in 50 % DMSO)” for “AG)”
as §3

[1] = molecular target: T5, human neutrophils elastase (Homo sapiens, UniProt P08246); test: Inhibitory activity on other serine proteases: Elastase (sucAAVpNA); assay type: biochemical; conditions: for IC50: elastase; for fold vs chymase: elastase IC50 compared with IC50 value of chymase
T5 construct: human neutrophils elastase (0.02 mg/ml in 50 mM Tris-HCl, pH 7.0, 2 mM CaCl2, Athens research and technology); purchased Athens research and technology; host or cells: human neutrophils
T5 sequence (P08246 30-267): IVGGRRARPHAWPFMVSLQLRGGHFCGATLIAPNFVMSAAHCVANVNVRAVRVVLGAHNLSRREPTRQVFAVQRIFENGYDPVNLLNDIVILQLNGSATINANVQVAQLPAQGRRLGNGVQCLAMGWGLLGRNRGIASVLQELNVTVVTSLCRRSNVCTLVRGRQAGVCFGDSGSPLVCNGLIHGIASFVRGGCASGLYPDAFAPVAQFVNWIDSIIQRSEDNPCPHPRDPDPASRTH
Method: The mixture of 10 µl of human neutrophils elastase (0.02 mg/ml in 50 mM Tris-HCl, pH 7.0, 2 mM CaCl2, Athens research and technology), 80 µl of buffer (50mM Tris-HCl, pH 8.0, 2 mM CaCl2) and 1 µl of the compound of the present invention (in DMSO) was incubated for 20 minutes at room temperature and for 10 minutes at 37 °C. The resultant mixture was reacted with 10 µl of a substrate (5 mM sucAAVpNA (BACHEM Feinchemikalien AG) in 50 % DMSO) for about 30 minutes at 37 °C and the absorption intensity (405 nm) was measured.
as §3

human serine plasmin = molecular target: T6, human serine plasmin (Homo sapiens, UniProt P00747); test: Inhibitory activity on other serine proteases: Plasmin (Chromozyme PL); assay type: biochemical; conditions: for IC50: plasmin; for fold vs chymase: plasmin IC50 compared with IC50 value of chymase
T6 construct: purchased SIGMA
T6 sequence (P00747 581-810 limits assumed): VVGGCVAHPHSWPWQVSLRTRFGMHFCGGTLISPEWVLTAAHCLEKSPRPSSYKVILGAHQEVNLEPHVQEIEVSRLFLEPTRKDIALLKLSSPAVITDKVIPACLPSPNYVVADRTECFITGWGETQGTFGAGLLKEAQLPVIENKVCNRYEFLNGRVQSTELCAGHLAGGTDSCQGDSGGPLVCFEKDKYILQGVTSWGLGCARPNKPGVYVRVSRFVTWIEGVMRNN
T6 sequence (P00747 98-580 partner limits assumed): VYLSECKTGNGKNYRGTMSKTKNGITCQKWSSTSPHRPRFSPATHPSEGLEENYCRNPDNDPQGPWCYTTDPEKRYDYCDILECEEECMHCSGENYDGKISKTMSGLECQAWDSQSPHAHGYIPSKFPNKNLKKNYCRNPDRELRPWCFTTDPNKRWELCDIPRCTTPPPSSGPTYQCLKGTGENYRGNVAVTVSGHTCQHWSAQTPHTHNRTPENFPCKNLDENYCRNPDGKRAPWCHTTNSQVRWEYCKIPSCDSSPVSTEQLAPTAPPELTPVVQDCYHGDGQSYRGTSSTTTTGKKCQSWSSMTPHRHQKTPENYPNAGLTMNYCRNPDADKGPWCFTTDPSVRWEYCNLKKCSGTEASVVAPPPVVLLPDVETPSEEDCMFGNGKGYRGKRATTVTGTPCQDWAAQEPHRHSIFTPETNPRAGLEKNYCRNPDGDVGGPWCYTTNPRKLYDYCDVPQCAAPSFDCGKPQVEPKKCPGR
Method: The mixture of 10 µl of human serine plasmin (0.1 mg/ml in 1 mM HCl, 20 mM CaCl2, SIGMA), 80 µl of buffer (50mM Tris-HCl, pH 7.5, 50 mM NaCl) and 1 µl of the compound of the present invention (in DMSO) was incubated for 20 minutes at room temperature and for 10 minutes at 37 °C. The resultant mixture was reacted with 10 µl of a substrate (5 mM Chromozyme PL(TosGPKpNA, Boehringer Mannheim) in H2O) for about 30 minutes at 37 °C and the absorption intensity (405 nm) was measured.
as §3

CC(NC(=O)N1C(=O)C(Cc2ccccc2)C1Oc1ccc(C(=O)N2CCN(C)CC2)cc1)c1ccccc1 (stereo not shown) [Compound I-39, 3-Benzyl-2-[4-(4-methyl-piperazine-1-carbonyl)-phenoxy]-4-oxo-azetidine-1-carboxylic acid (1-phenyl-ethyl)-amide]
IC50 (human chymase): 0.00046 µM
IC50 (IL-1β): 2.7 µM
IC50 (IL-2; Homo sapiens): 2.7 µM
IC50 (IL-4; Homo sapiens): 11.7 µM
IC50 (IFNγ; Homo sapiens): 12.1 µM
IC50 (IL-5): 6.5 µM
IC50 (TNF-α): 1.9 µM
IC50 (IL-6; Homo sapiens): 6.4 µM

CC(NC(=O)N1C(=O)C(Cc2ccccc2)C1Oc1ccc(C(=O)N2CCN(C)CC2)cc1)c1ccccc1 (stereo not shown) [Compound I-62, 3-Benzyl-2-[4-(4-methyl-piperazine-1-carbonyl)-phenoxy]-4-oxo-azetidine-1-carboxylic acid (1-phenyl-ethyl)-amide]
IC50 (human chymase): 0.00017 µM
IC50 (IL-1β): 11.3 µM
IC50 (IL-2; human mononuclear cells): 2.4 µM
IC50 (IL-4; human mononuclear cells): 20.2 µM
IC50 (IFNγ; human mononuclear cells): 17.1 µM
IC50 (IL-5): 13.9 µM
IC50 (TNF-α): 6.8 µM
IC50 (IL-6; human mononuclear cells): 9.3 µM

CCOc1ccccc1CC1C(=O)N(C(=O)NC(c2ccccc2)c2ccccc2)C1Oc1ccc(C(=O)O)cc1 (stereo not shown) [Compound I-144, 4-[1-(Benzhydryl-carbamoyl)-3-(2-ethoxy-benzyl)-4-oxo-azetidin-2-yloxy]-benzoic acid]
IC50 (human chymase): 0.0031 µM
IC50 (Cathepsin G): 0.0354 µM
fold vs chymase (Cathepsin G): 11
IC50 (human plasma thrombin): > 100 µM
fold vs chymase (human plasma thrombin): >30000
IC50 (bovine pancreas trypsin): 25 µM
fold vs chymase (bovine pancreas trypsin): 8000
IC50 [1]: > 100 µM
fold vs chymase [1]: >30000
IC50 (human serine plasmin): > 10 µM
fold vs chymase (human serine plasmin): >3000

CCOc1ccccc1C[C@@H]1C(=O)N(C(=O)NC(c2ccc(C)cc2)c2ccc(C)cc2)[C@H]1Oc1ccc(C(=O)O)cc1 [Compound I-158]
IC50 (human chymase): 0.0082 µM
IC50 (Cathepsin G): 0.143 µM
fold vs chymase (Cathepsin G): 17
IC50 (human plasma thrombin): > 100 µM
fold vs chymase (human plasma thrombin): >10000
IC50 (bovine pancreas trypsin): 6.2 µM
fold vs chymase (bovine pancreas trypsin): 760
IC50 [1]: 25 µM
fold vs chymase [1]: 3000
IC50 (human serine plasmin): > 100 µM
fold vs chymase (human serine plasmin): >10000

CCOc1ccccc1C[C@@H]1C(=O)N(C(=O)NC(c2ccc(F)cc2)c2ccc(F)cc2)[C@H]1Oc1ccc(C(=O)O)cc1 [Compound I-159]
IC50 (human chymase): 0.0145 µM

CCOc1ccccc1C[C@@H]1C(=O)N(C(=O)NC(c2ccc(OC)cc2)c2ccc(OC)cc2)[C@H]1Oc1ccc(C(=O)O)cc1 [Compound I-160]
IC50 (human chymase): 0.015 µM

CCCc1ccccc1C[C@@H]1C(=O)N(C(=O)NC(c2ccccc2)c2ccccc2)[C@H]1Oc1ccc(C(=O)O)cc1 [Compound I-161]
IC50 (human chymase): 0.018 µM

CCC1(Cc2ccccc2)C(=O)N(C(=O)NC(C)c2ccccc2)C1Oc1ccc(C(=O)O)cc1 (stereo not shown) [Compound I-172]
IC50 (human chymase): 0.115 µM

CCC1(Cc2ccccc2)C(=O)N(C(=O)NC(C)c2ccccc2)C1Oc1ccc(C(=O)N2CCN(C)CC2)cc1 (stereo not shown) [Compound I-173]
IC50 (human chymase): 0.19 µM
